Article PMC10740580, “Benzothiazole-Phthalimide Hybrids as Anti-Breast Cancer and Antimicrobial Agents” (Antibiotics, 2023)
Converted amounts (≈) assume the structure as drawn.

Columns and labels:
MCF-7 cells = test: MTT cell viability assay, MCF-7; type: cell-based, human; conditions: mean ± SD; for IC50: Homo sapiens, MCF7, 72 h exposure
Protocol: The anticancer activity of the studied compounds (3a–h) was explored with regards to two human breast cancer cell lines, namely the estrogen receptor positive (ER+) MCF-7 cells and the triple negative MDA-MB-231 cells (ER-, PR-, and HER-2/Neu-). Cells were continuously exposed to the test substances for 72 h, after which their viability was assessed by means of the MTT assay. Table 2 lists the determined IC50 values for the investigated substances and the reference drug, thalidomide. […] Additionally, the same test for all the compounds has been performed on nonmalignant breast epithelial cells (MCF-10A) to ascertain their potential cytotoxicity.
The four cell lines used in this work (MCF-7, MDA-MB-231, MCF-10A, and 3T3-L1) were obtained from the American Type Culture Collection (ATCC, Manassas, VA, USA). All cell lines were maintained at 37 °C in a humidified atmosphere of 95% air and 5% CO2 and periodically screened for contamination. MCF-7, human breast cancer cells estrogen receptor (ER)-positive, and human breast cancer triple negative MDA-MB231 were grown in DMEM-F12 medium containing 2 mmol/L L-glutamine, 1 mg/mL penicillin–streptomycin, and 5% newborn calf serum (NCS) or 5% fetal bovine serum (FBS), respectively. MCF-10A human mammary epithelial cells were cultured in DMEM/F12 medium, supplemented with 5% horse serum (HS) (Eurobio, Les Ullis, Cedex, France), 100 U/mL penicillin/streptomycin, […], 20 ng/mL hEGF (human epidermal growth factor), […], and […] (Sigma-Aldrich, Milano, Italy). BALB/3T3 murine fibroblast cells were cultured in DMEM high glucose supplemented with 10% bovine calf serum (BCS), 1% L-glutamine, and 100 U/mL penicillin/streptomycin.
Cell viability was evaluated by means of the 3-(4,5-dimethylthiazol-2-y1)-2,5-diphenyltetra zolium bromide (MTT, Sigma-Aldrich, Milan, Italy) assay. On 48-well plates, cells were seeded, and they were cultured in complete medium. Before being treated, cells were starved in serum-free medium for 24 h to allow cell cycle synchronization. Subsequently, cells were exposed to increasing doses of each compound for 72 h in phenol-red-free media supplemented with 1% serum before fresh MTT was added to each well (final concentration: 0.5 mg/mL). Cells were lysed with DMSO after 2 h of incubation at 37 °C, and optical density at 570 nm was then determined with a microplate reader. Using GraphPad Prism 9 software (GraphPad Inc., San Diego, CA, USA), the mean absorbance for each sample was expressed as a percentage over the control and plotted vs. drug concentrations to establish the IC50 values. The given standard deviations (SDs) are indicative of three separate tests carried out in triplicate.

Candida albicans 90028 = test: Antifungal microdilution, C. albicans ATCC 90028; type: cell-based; conditions: microdilution CLSI M27-A3, 48 h, 37 °C
Protocol: In accordance with CLSI guidelines, compounds 3a–h were tested against a variety of fungal strains (Candida albicans 10231, Candida albicans 90028, Candida glabrata 15126, and Candida parapsilosis 22019) belonging to the ATCC collection. Amphotericin B was utilized as a reference drug. A similar trend of results, or even better than that obtained against bacteria, was assessed against fungal strains. […] Also, in this case, compound 3h emerged as the best of the series, with MICs of 16 μg/mL against Candida glabrata and Candida parapsilosis strains and 32 μg/mL against Candida albicans strains.
A microdilution technique described by the Clinical and Laboratory Standards Institute (CLSI, M27-A3) was used to assess the antifungal activity. The following fungal strains, belonging to the ATCC collection and available as freeze-dried discs, were used: C. albicans ATCC 10231, C. albicans ATCC 90028, C. glabrata ATCC 15126, and C. parapsilosis ATCC 22019. Stock solutions were prepared and preserved with purity as previously described for the antibacterial studies. Each yeast strain’s pre-cultures were made in Sabouraud broth (SAB) and allowed to grow until they stopped at 37 °C. By using a spectrophotometric technique (530 nm, range 0.12–0.15), the turbidity of the yeast stock suspension was calibrated to 0.5 McFarland Standard. Next, the standardized suspension was diluted first at 1:50 with SAB and then at 1:20 in the same medium to have […]. A total of 100 µL of inoculum was seeded into each well. As a control for growth, several wells containing only inoculated broth were prepared. The plates were incubated for 48 h at 37 °C, and the MIC values were calculated as the final well with no fungal growth. […] MIC values were observed based on the absence of fungal growth in the final well. The MICs were calculated by conducting the antifungal test three times in duplicate. As a control, amphotericin B was used.

O=C1c2ccccc2C(=O)N1c1nc2ccccc2s1 [3a, 2-(1,3-benzothiazol-2-yl)-1H-isoindole-1,3(2H)-dione] was tested. Which IC50 (MCF-7 cells) did it give?
Its IC50 is 165.5 ± 1.1 µM.

And the MIC (Candida albicans 90028)?
The MIC was 64 µg/mL (≈ 228 µM).

What does the source list for COc1cc2nc(N3C(=O)c4ccccc4C3=O)sc2cc1OC [3f, 2-[5,6-Dimethoxy-1,3-benzothiazol-2-yl]-1H-isoindole-1,3(2H)-dione]?
IC50 (MCF-7 cells): 93 ± 1.4 µM; MIC (Candida albicans 90028): 64 µg/mL (≈ 188 µM)

With COc1ccc2nc(N3C(=O)c4ccccc4C3=O)sc2c1 [3e, 2-[6-Methoxy-1,3-benzothiazol-2-yl]-1H-isoindole-1,3(2H)-dione] as the compound, how does the IC50 (MCF-7 cells) read?
The IC50 was 223.1 ± 0.9 µM.

What about the MIC (Candida albicans 90028) of the same compound?
Its MIC is 64 µg/mL (≈ 206 µM).

With O=C1c2ccccc2C(=O)N1c1nc2ccc(Oc3ccccc3)cc2s1 [3h, 2-[6-Phenoxy-1,3-benzothiazol-2-yl]-1H-isoindole-1,3(2H)-dione] as the compound, how does the IC50 (MCF-7 cells) read?
Its IC50 is 26.2 ± 0.9 µM.

What about the MIC (Candida albicans 90028) of the same compound?
Its MIC is 32 µg/mL (≈ 85.9 µM).

How did the “IC50 MCF-7” value (MCF-7 cells; 72 h exposure) turn out when O=C1c2ccccc2C(=O)N1c1nc2ccc(C(F)(F)F)cc2s1 [3c, 2-[6-Trifluoromethyl-1,3-benzothiazol-2-yl]-1H-isoindole-1,3(2H)-dione] was run?
Its value is “did not possess any activity”.

What about the IC50 (MCF-7 cells) of the same compound?
Its IC50 is greater than 500 µM.

What about the MIC (Candida albicans 90028) of the same compound?
The MIC was 64 µg/mL (≈ 184 µM).

How did the IC50 (MCF-7 cells) turn out when Cc1ccc2nc(N3C(=O)c4ccccc4C3=O)sc2c1 [3d, 2-[6-Methyl-1,3-benzothiazol-2-yl]-1H-isoindole-1,3(2H)-dione] was run?
The IC50 was 66 ± 1.2 µM.

What about the MIC (Candida albicans 90028) of the same compound?
Its MIC is greater than 512 µg/mL.

With O=C1c2ccccc2C(=O)N1c1nc2ccc(F)cc2s1 [3b, 2-(6-Fluoro-1,3-benzothiazol-2-yl)-1H-isoindole-1,3(2H)-dione] as the compound, how does the IC50 (MCF-7 cells) read?
The IC50 was 91.5 ± 0.6 µM.

And the MIC (Candida albicans 90028)?
Its MIC is 64 µg/mL (≈ 215 µM).

Which IC50 (MCF-7 cells) does the source give for O=C1c2ccccc2C(=O)N1c1nc2ccc(O)cc2s1 [3g, 2-[6-Hydroxy-1,3-benzothiazol-2-yl]-1H-isoindole-1,3(2H)-dione] here?
Its IC50 is 71.2 ± 0.7 µM.

What about the MIC (Candida albicans 90028) of the same compound?
The MIC was 64 µg/mL (≈ 216 µM).
